Values quoted from earlier work, collected in article PMC10146281, “Pharmacokinetic and Pharmacodynamic Characteristics of Pelubiprofen Tromethamine vs. Pelubiprofen in Healthy Subjects” (Pharmaceutics, 2023).
Where two headings read alike, the source gives them in different places.

Details: cited from earlier work

CC(C)Cc1ccc(C(C)C(=O)O)cc1 (centres unmarked) [ibuprofen]
Cmax: approximately 24 mg/L

CC(C)Cc1ccc(C(C)C(=O)O)cc1.N=C(N)NCCC[C@H](N)C(=O)O (centres unmarked) [ibuprofen arginate]
Cmax (in vivo): approximately 30 mg/L
